This is an account of results in ChEMBL document CHEMBL4396866, “Discovery and Structure-Based Optimization of Next-Generation Reversible Methionine Aminopeptidase-2 (MetAP-2) Inhibitors” (J Med Chem, 2019).

In brackets after ≈: the same amount, converted by molar mass.

A short description of data set [1]: Drug metabolism in DMSO assessed as oxidation by measuring rac-3-Hydroxy-2-oxo-1-phenylpyrrolidine-3-carboxylic Acid (2-Thiophen-2-ylethyl)amide formation measured after 2 years.
A short description of data set [2]: Drug metabolism in DMSO assessed as oxidation by measuring rac-3-Hydroxy-2-oxo-1-phenylpyrrolidine-3-carboxylic Acid (2-Thiophen-2-ylethyl)amide formation incubated at high temperature under stirring condition for 2 days.
Data set [3] in a line: Toxicity in CD-1 nude mouse xenografted with human U87MG cells assessed as body weight loss at 5 to 20 mg/kg, po administered once daily for 12 days measured during compound dosing. Type of data set: organism-based. The note with it: in vivo, 288 h. For orientation: A xenograft is tissue or cells of one species grown in another, often human tumour cells in immunodeficient mice.

For data set [4], the system named is U-87 MG. Description: Antitumor activity against human U87MG cells xenografted in po dosed CD-1 nude mouse assessed as tumor growth inhibition administered once daily for 12 days. The class given is functional, organism-based. Conditions: U-87MG ATCC.
Data set [5] is described as follows: Lipophilicity, log D of the compound at pH 7.4. Type of data set: physicochemical. The note with it: buffer.
Data set [6] can be described thus: Solubility of the compound in FaSSIF. Type of data set: physicochemical.
Data set [7] can be described thus: Clearance in mouse at 0.2 mg/kg, iv. Type of data set: ADME, organism-based. Conditions: in vivo.
Data set [8] can be described thus: Oral bioavailability in mouse at 0.5 mg/kg. The class given is ADME, organism-based. Conditions: in vivo.
Data set [9] in a line: Half life in mouse at 0.2 mg/kg, iv. Type of data set: ADME, organism-based. Conditions: in vivo.
Data set [10] can be described thus: Dissociation constant, pKa of compound. Type of data set: physicochemical.
Data set [11] is described as follows: Volume of distribution at steady state in mouse at 0.2 mg/kg, iv. The class given is ADME, organism-based. The note with it: in vivo, read-out: Vdss.
Data set [12] can be described thus: Solubility of the compound in FeSSIF. The class given is physicochemical.
A short description of data set [13]: Stability in human liver microsomes assessed per mg protein. Type of data set: ADME, Microsome. (In general: Microsomes from liver hold many membrane-bound enzymes, among them those of drug oxidation.)
Data set [14] can be described thus: Oral bioavailability in mouse at 50 mg/kg. The note with it: in vivo. The class given is ADME, organism-based.
Data set [15] in a line: Passive permeability across apical to basal side in human Caco2 cells. Type of data set: ADME, cell-based. Conditions: Caco-2, read-out: permeability. (In general: Caco-2 monolayers are a common model of the intestinal barrier.)
Data set [16] in a line: Stability in mouse liver microsomes assessed per mg protein. Type of data set: ADME, Microsome.
Data set [17] can be described thus: Toxicity in CD-1 nude mouse xenografted with human U87MG cells at 5 to 20 mg/kg, po administered once daily for 12 days measured during compound dosing. The note with it: in vivo, 288 h. Type of data set: organism-based.

Take `O=C(NCCc1cccs1)C1CCN(c2ccccc2)C1=O` (configuration not stated): the figures for the Drug metabolism result in [1] and in [2] were “Metabolite detected” and “Metabolite not detected”, respectively.

What is called logD is the decadic logarithm of the distribution of all forms, ionised or not, between an organic phase and buffer at a given pH. Lower therefore signals a more hydrophilic compound. Broadly, the solubility is the dissolved amount per volume that the medium holds. The clearance is the volume of plasma or blood freed of the substance per unit of time. The low end stands for a low capacity for elimination, the high end for a high capacity for elimination. The bioavailability is dose-corrected exposure relative to a reference, in per cent. Read a low bioavailability as poor availability. One may read the half-life as the time needed for the level to fall by half in the phase considered. By pKa is commonly meant the negative logarithm of the acid dissociation constant. A low value points to a stronger acid or weaker base. For the compound `O=C1CCc2cc(N3CC[C@](O)(C(=O)NCc4cc(F)cc(Cl)c4)C3=O)ccc2N1`, the Activity entry in data set [3] and in data set [17] was “Non-Toxic” throughout. The TGI entry in data set [4] is “Dose-dependent effect”. Also, the logD in data set [5] was 2. Besides, the values for the solubility in data set [6] and in data set [12] were 158 µg/mL (≈ 366 µM) and 334 µg/mL (≈ 773 µM), respectively. In data set [7], this compound had a clearance of 3 mL/min/kg. Also, the bioavailability in [8] turned out to be 35%; in data set [14] it was 100%. Besides, in [9], the half-life is 3 h. In [10], this compound yielded a pKa of 11. Also, the Vd in data set [11] was 0.78 L/kg. For the same compound, the Stability in data set [13] and in data set [16] was under 10 µL/min in each case. Also, the Papp A→B in [15] turned out to be 16 ×10⁻⁶ cm/s.
